Test results from article PMC9220178, “Preclinical Characterization of Antioxidant Quinolyl Nitrone QN23 as a New Candidate for the Treatment of Ischemic Stroke” (Antioxidants, 2022).

Key:
[1] = test system: Wistar male rats subjected to global cerebral ischemia; test: Imaging of cerebral ROS with dihydroethidium (DHE) in brain ischemia; type: in vivo, rat; details: 2.0 mg/kg i.v. at reperfusion onset; CA1 and cortical regions; 6 h of reperfusion
Protocol: In order to evaluate the antioxidant capacity of QN23 in vivo, the fluorescent probe dihydroethidium (DHE) was used for superoxide and hydrogen peroxide detection according to the experimental procedure described in [29], with minor modifications. Animals subjected to global cerebral ischemia (Wistar male rats of 280–300 g) were treated with vehicle or QN23 at the onset of the reperfusion period, and after 2 h of reperfusion DHE (3.0 mg/kg; 0.9 mg/mL in DMSO/polyethylene glycol 400/saline, 2.5:50:47.5 v/v) was intravenously injected (1 mL). DHE (Sigma-Aldrich, Merck KGaA, Darmstadt, Germany) was freshly weighted and dissolved just before the injection to avoid undesired air-driven oxidation. At 6 h of reperfusion after ischemia (4 h after DHE injection), the animals were euthanized and perfused with saline and 4% (w/v) paraformaldehyde in PBS. […]
Hippocampal CA1 subfields and cortical fields from a given brain section were randomly selected and analyzed with fluorescence microscopy (20× objective), and the selected images (425 × 340 μm) were digitized with a color CCD camera (1280 × 1024 pixel resolution). Fluorescence intensity (in red) of ROS-reacted DHE was evaluated and normalized to the number of DAPI-stained nuclei by using an image analysis software (Image-J 1.53). At least four images per brain sample, and 3 to 6 brains per experimental group, were evaluated and averaged. […]

[2] = test system: adult male Wistar rats, four-vessel occlusion (4VO) transient forebrain ischemia; test: Neuronal apoptosis by TUNEL assay after transient global cerebral ischemia (4VO); type: in vivo, rat; details: for Neuroprotection (neuronal apoptosis, TUNEL): vehicle = 0%
Protocol: Transient forebrain ischemia was induced in adult male Wistar rats (10–12 weeks, Charles River, L’Arbresle, France) by the standard four-vessel occlusion (4VO) model previously described. Briefly, animals were anesthetized by intraperitoneal injection of a combination of ketamine, diazepam, and atropine (62.5, 5.0, and 0.25 mg/kg, respectively); positioned in a stereotactic device; and both vertebral arteries were cauterized. The next day, anesthesia was induced with 4% isoflurane and maintained at 2–2.5% isoflurane for carotid artery dissection. After anesthesia withdrawal, the carotid arteries were occluded with an atraumatic vascular clamp to induce brain ischemia. During the entire surgical procedure, temperature was monitored at 2 min intervals and kept at 37 °C. After 15 min of ischemia, the carotid arteries were unclamped for brain reperfusion. The animals were studied after 5 days of reperfusion (R5d), or after 11 weeks of reperfusion (long-term studies), and then they were euthanized under deep anesthesia. Animals from the sham control group were handled in the same way, but without occlusion of the carotid arteries. Ischemic animals were treated with vehicle solution (ethanol/polyethylene glycol 400/saline, 1:300:200 v/v), or with nitrones QN23 or NXY-059 in vehicle solution, as a single injection through the tail vein at the onset of reperfusion. For the therapeutic window experiments, the animals were also treated at reperfusion times 1, 3, and 6 h after ischemia. The treatments were prepared by an independent researcher and administered with concealed allocation. Treatments were administered in a randomized order obtained by a computer-based randomization program. To determine the sample size, a power analysis (http://www.biomath.info/power/ttest.htm, accessed on 12 March 2020) with significance level set at 0.05 and statistical power set at 0.8 (80%) rendered a sample size of <6 subjects per group. A total of 120 ischemic animals (30 animals treated with vehicle, 60 treated with QN23, and 30 treated with NXY-059) and 9 sham control animals were included in these studies. Additionally, 13 animals were excluded from the study: 6 animals were not ischemic and 7 animals died within the 24 h after the surgical procedure (5 vehicles, 1 QN23-treated at 1.0 mg/kg, and 1 QN23-treated at 2.0 mg/kg). The Animal Care Ethics Committee of the Hospital Universitario Ramón y Cajal (Madrid, Spain) authorized all the procedures involving the animal experimentation reported here (authorization number 04/2020). These experiments were performed according to ARRIVE guidelines and the legislation on the protection of animals used for scientific purposes in Spain (RD 53/2013) and the EU (Directive 2010/63/EU). The study was designed and conducted according to the STAIR guidelines regarding physiological monitoring, sample randomization, predefined exclusion criteria, allocation concealment, blinded assessment of outcomes, dose–response definition, and a conflict-of-interest statement.
After 5 days of reperfusion (R5d), or at 11 weeks of reperfusion in long-term studies, animals were euthanized by transcardiac perfusion via the left ventricle under deep anesthesia. First, blood was washed out with 200 mL of ice-cold saline medium, followed by fixation with 4% (w/v) paraformaldehyde solution in PBS for brain preservation. Then, the brains were carefully removed from the cranial cavity and placed in 4% (w/v) paraformaldehyde solution in PBS overnight at 4 °C. The next day, the brains were sequentially placed in 10%, 20%, and 30% (w/v) sucrose in PBS until sunken, and finally embedded in Tissue-Tek O.C.T. (Sakura Finetek, Torrance, CA, USA) before freezing at −80 °C. Brain coronal sections containing the hippocampus region were obtained by cryostat sectioning at the level of interaural line +5.7 ± 0.2 mm on Real Capillary Gap microscope slides (Agilent Dako, Santa Clara, CA, USA). […]

[3] = test system: carrageenan-induced rat paw edema; parameters: method as in PMID 30715875; details: cited from earlier work

SMILES: COc1ccc2nc(Cl)c(/C=[N+](\[O-])C(C)(C)C)cc2c1 [QN23, (Z)-N-tert-Butyl-1-(2-chloro-6-methoxyquinolin-3-yl)methanimine Oxide]
- Fluorescence intensity of ROS-reacted DHE compared with vehicle [1]: decreased significantly
- Therapeutic window: injection time after reperfusion onset with significantly reduced apoptosis-positive cells ([2]; 2.0 mg/kg i.v., CA1 and cortical regions, R5d, times tested 0, 1, 3, 6 h): up to 3 h
- Neuroprotection (neuronal apoptosis, TUNEL) ([2]; CA1, 1.5 mg/kg i.v. at reperfusion onset, R5d): 16.2%
- Neuroprotection (neuronal apoptosis, TUNEL) ([2]; CA1, 2.0 mg/kg i.v. at reperfusion onset, R5d): 27.8%
- Number of apoptotic cells compared with vehicle ([2]; CA1 and cortical regions, 2.0 and 2.5 mg/kg i.v. at reperfusion onset, R5d): significant decrease
- Neuroprotection (neuronal apoptosis, TUNEL) ([2]; cortical region, 1.5 mg/kg i.v. at reperfusion onset, R5d): 85.0%
- Neuroprotection (neuronal apoptosis, TUNEL) ([2]; cortical region, 2.0 mg/kg i.v. at reperfusion onset, R5d): 88.0%
- EC50 of neuroprotection, TUNEL assay ([2]; either CA1 or cortical region, i.v., from dose-response curve): 0.3 mg/kg
- Anti-inflammatory activity [3]: showed anti-inflammatory properties
